Test results as given in US20030232101A1, “Topical formulations of resorcinols and cannibinoids and methods of use” (Immugen Pharmaceuticals, Inc., priority 2002, published 2003).
Entries after “also recorded” stand apart in the source; their conditions may differ. Like-named read-outs stand apart in the source and are kept apart here.

What was measured:
[1] = test system: peripheral blood mononuclear cells (PBMCs); experiment: PBMC cell viability in time of addition assay (MTS / Trypan Blue); assay type: cell-based, Human; settings: read-out: TC50 (the source's name)
Description: (§1) Human peripheral blood mononuclear cells (PBMCs) from a minimum of 2 donors, that have been blasted with PHA and IL-2, were counted, viability determined by Trypan Blue dye exclusion and mixed in equal ratios. Pooled donors were used to minimize the variability observed between individual donors which results from quantitative and qualitative differences in HIV infection and overall response to the PHA and IL-2 of primary lymphocyte populations. The cells were resuspended at 1×10^6 cells /mL in RPMI 1640 without phenol red supplemented with 15% Fetal Bovine Serum (heat inactivated), 2 mM L-glutamine, 100 U/mL penicillin, 100 μg/mL streptomycin, 10 μg/mL gentamycin and IL-2 (20 U/mL, R&D Systems, Minneapolis, Minn.). Fifty microliters of cells were then distributed to the inner 60 wells of a 96 well round bottom microtiter culture plate in a standard format developed by the Infectious Disease Research department of Southern Research Institute. Each plate contains cell control wells (cells only), virus control wells (cells plus virus), and experimental wells (drug plus cells plus virus). Alternatively, cells were cultured in T25 cm^2 or T75 cm^2 tissue culture flasks at a starting density of 1×10^6 cells per ml. Serially diluted compounds were added to the microtiter plate or tissue culture flask followed by the appropriate pre-titered strain of HIV-1. For virus replication inhibition experiments the HIV-1 strain RoJo was used. This is a low passage presumable subtype B pediatric isolate with a syncytium inducing (SI) phenotype in MT-2 cells isolated by Southern Research Institute personnel. All samples were assayed in triplicate where possible with an accompanying determination of compound toxicity. The final volume per well in the microtiter plates was 200 μL. The final volume in the tissue culture flask varied depending upon experimental design and flask size. Assays were incubated for 6 days in a humidified atmosphere at 37° C., 5% CO^2, after which supernatants were collected, for analysis of RT activity and cell viability by MTS dye reduction. Culture were also examined microscopically, any abnormalities noted, and in the case of tissue culture flasks cell counts and viability determined by Trypan Blue Dye exclusion.
(§2) Time of addition assays were performed with PBMCs in two ways. For both assays, PBMCs were isolated and cultured under the conditions as described above. Time of addition assays were carried out in either a tissue culture flask format (T-75 cm^2) or in microtiter wells. In both cases due to the lack of plastic adherence and heterogeneity of the PBMC population for susceptibility to infection, it was not possible to use complete removal of virus following a timed adsorption to synchronize the infection and limit the assay to a single round of infection. Therefore, serial washing by partial removal of the media was used to reduce the concentration of virus and compound (if required) in the assay. Compound addition in relationship to antiviral activity was either assessed over a short addition interval immediately before or after virus addition or for up to 72 h post infection. For all assays virus replication was assessed at 6 days of culture by determining RT expression in cell-free supernatants. In the tissue culture flask format cells were counted and Trypan Blue Dye exclusion used to monitor compound cytotoxicity. Cell viability in the 96 well microtiter plate format was determined by MTS dye reduction. AZT was used as a positive control.
(§3) At assay termination the assay plates were stained with the soluble tetrazolium-based dye MTS (CellTiter96® Reagent Promega) to determine cell viability and quantify compound toxicity. MTS is metabolized by the mitochondria enzymes of metabolically active cells to a soluble formazan product, allowing the rapid quantitative analysis cell viability and compound cytotoxicity. […] At termination of the assay 20 μL of MTS reagent was added per well and incubated for 4 h at 37° C. […]

[2] = as above; assay type: cell-based, Human; settings: human, read-out: TC50
Description: as §1, §2, §3

HIV-1 strain RoJo = experiment: PBMC time of addition assay (RT activity in supernatant at 6 days); assay type: cell-based; settings: for IC50: Human immunodeficiency virus 1, PBMC
Description: as §1, §2
Reverse transcriptase activity was measured in cell-free supernatants. Tritiated thymidine triphosphate (NEN) (TTP) was resuspended in distilled H2O at 5 Ci/mL. Poly rA and oligo dT were prepared as a stock solution which was kept at −20° C. The RT reaction buffer was prepared fresh on a daily basis and consists of 125 μL 1.0 M EGTA, 125 μL dH2O, 110 μL 10% SDS, 50 μL 1.0 M Tris (pH 7.4), 50 μL 1.0 M DTT, and 40 μL 1.0 M MgCl2. […]

HIV-1 (96USHIPS7 strain) = experiment: HIV attachment assay in PBMCs (cell-associated p24); assay type: cell-based; settings: 15 μM
Description: ELISA kits were purchased from Coulter Electronics. The assay was performed according to the manufacturer's instructions. Control curves were generated in each assay to accurately quantitate the amount of p24 antigen in each sample. For experiments using cell lysates. Fifty thousand (5×10^4) viable cells were lysed in Coulter ELISA buffer and subjected to 1 round of freeze/thawed to liberate trapped p24 and p24 detected per manufacturers instructions. HIV capsid protein (p24) was quantitated spectrophotometrically at 450 nm using a Molecular Devices Vmax plate reader using a standard curve. Final concentrations were calculated from the optical density values using the Molecular Devices Soft Max software package.
The attachment assay with PBMCs was performed as follows. Briefly, 1×10^6 PHA/IL-2 PBMCs were incubated for 0, 2, 4 and 24 hours with IMG compounds and cannabidiol in polypropylene tubes. A pre-titered amount of HIV-1 (96USHIPS7 strain, obtained from the AIDS Research and Reference Reagent Program ) was added in the presence of compound and incubated for 3 h at 37° C. After incubation the cultures were washed 3 times (400×g, 10 min, 4° C.) with media (1:25,000 dilution of input p24), the cell pellets lysed with p24 lysing buffer (Coulter) and p24 content determined by ELISA.
PBMCs pretreated with compounds for 0, 2, 4, and 24 were incubated with cell-free HIV-1 for 3 h and the excess unbound HIV removed. The assessed the amount of HIV bound to the cell was then assessed by measuring cell-associated p24 content of total cell lysates.

HIV-1 = experiment: HeLa CD4 LTR β-gal HIV-1 attachment assay (Experimental Example 1); assay type: cell-based; settings: for IC50: Human immunodeficiency virus 1, HeLa; for inhibition of HIV attachment/entry: following a 24 h pre-incubation
[3] = addition prior to infection, pre-treatment 0 h
[4] = addition prior to infection, pre-treatment 2 h
[5] = addition prior to infection, pre-treatment 4 h
[6] = addition prior to infection, pre-treatment 24 h

Cc1c(O)cc(C(C)(C)CCCC(C)C)cc1O [IMG510, 2-Methyl-5-(1,1,5-trimethylhexyl)resorcinol]
CC50 ([1]; treatment 6 h post): > 100 µM
CC50 ([1]; treatment at infection): > 100 µM
CC50 at 6 days ([2]; treatment −4 h pre): > 100 µM
fold decrease in IC50 (HIV-1 strain RoJo; 2 h pretreatment): 9.5-fold decrease in
IC50 (HIV-1 strain RoJo; 4 h, treatment −4 h pre): 17.7 µM
IC50 (HIV-1 strain RoJo; 6 h, treatment 6 h post): 14.4 µM
IC50 (HIV-1 strain RoJo; [3]): 13.4 µM
IC50 (HIV-1 strain RoJo; [4]): 1.4 µM
IC50 (HIV-1 strain RoJo; [5]): 11.5 µM
IC50 (HIV-1 strain RoJo; [6]): 9.5 µM
IC50 (HIV-1 strain RoJo; treatment at infection): 16.1 µM
% Control (HIV-1 (96USHIPS7 strain); time 0 h): 91.1%
pg p24 (HIV-1 (96USHIPS7 strain); time 0 h): 350 pg
% Control (HIV-1 (96USHIPS7 strain); time 2 h): 85.7%
pg p24 (HIV-1 (96USHIPS7 strain); time 2 h): 329 pg
% Control (HIV-1 (96USHIPS7 strain); time 4 h): 71.4%
pg p24 (HIV-1 (96USHIPS7 strain); time 4 h): 274 pg
% Control (HIV-1 (96USHIPS7 strain); time 24 h): 88.3%
pg p24 (HIV-1 (96USHIPS7 strain); time 24 h): 339 pg
IC50 (HIV-1; Experiment 1, pretreat 0 h): > 50 µM
IC50 (HIV-1; Experiment 1, pretreat 4 h): > 50 µM
IC50 (HIV-1; Experiment 1, pretreat 24 h): 0.14 µM
IC50 (HIV-1; Experiment 2, pretreat 0 h): > 50 µM
IC50 (HIV-1; Experiment 2, pretreat 4 h): > 50 µM
IC50 (HIV-1; Experiment 2, pretreat 24 h): 11.5 µM
β-galactosidase production relative to background (cells alone+compounds) (HIV-1; following 24 h exposure): suppressed β-galactosidase production below background
inhibition of HIV attachment/entry (HIV-1): consistent inhibition
Comment: transient suppression lost at lower concentrations (HIV-1; pretreat 4 h): transient suppression of virus replication; also recorded: Transient suppression lost with at lower
Comment: suppression of β-galactosidase activity (HIV-1; pretreat 24 h): Suppression of β-galactosidase activity

COc1cc(C(C)(C)CCCC(C)C)cc(OC)c1OC [IMG507, 1-(1,1,5-Trimethylhexyl)-3,4,5-trimethoxybenzene]
CC50 ([1]; treatment 6 h post): > 100 µM
CC50 ([1]; treatment −4 h pre): > 100 µM
CC50 at 6 days ([2]; treatment at infection): > 100 µM
fold increase in IC50 (HIV-1 strain RoJo; 24 h pretreatment): approximately 2 fold
IC50 (HIV-1 strain RoJo; 4 h, treatment −4 h pre): 39.5 µM
IC50 (HIV-1 strain RoJo; 6 h, treatment 6 h post): 46.1 µM
IC50 (HIV-1 strain RoJo; [3]): 6.9 µM
IC50 (HIV-1 strain RoJo; [4]): 6.1 µM
IC50 (HIV-1 strain RoJo; [5]): 5.3 µM
IC50 (HIV-1 strain RoJo; [6]): 10.8 µM
IC50 (HIV-1 strain RoJo; treatment at infection): 67 µM
Comments: effect on HIV attachment (HIV-1 (96USHIPS7 strain); pretreatment 0, 2, 4, 24 h): no significant effect on virus attachment
% Control (HIV-1 (96USHIPS7 strain); time 0 h): 83.3%
pg p24 (HIV-1 (96USHIPS7 strain); time 0 h): 320 pg
% Control (HIV-1 (96USHIPS7 strain); time 2 h): 91.4%
pg p24 (HIV-1 (96USHIPS7 strain); time 2 h): 351 pg
% Control (HIV-1 (96USHIPS7 strain); time 4 h): 76.3%
pg p24 (HIV-1 (96USHIPS7 strain); time 4 h): 293 pg
% Control (HIV-1 (96USHIPS7 strain); time 24 h): 95.8%
pg p24 (HIV-1 (96USHIPS7 strain); time 24 h): 368 pg
IC50 (HIV-1; Experiment 1, pretreat 0 h): > 50 µM
IC50 (HIV-1; Experiment 1, pretreat 4 h): > 50 µM
IC50 (HIV-1; Experiment 1, pretreat 24 h): > 50 µM
IC50 (HIV-1; Experiment 2, pretreat 0 h): 16 µM
IC50 (HIV-1; Experiment 2, pretreat 4 h): > 50 µM
IC50 (HIV-1; Experiment 2, pretreat 24 h): > 50 µM
β-galactosidase production relative to background (cells alone+compounds) (HIV-1; at all times): suppressed β-galactosidase production below background
inhibition of HIV attachment/entry (HIV-1): not
transient suppression of virus replication at lower concentrations of compounds (HIV-1; observed consistently, two independent experiments): transient suppression of virus replication
Comment: transient suppression lost at lower concentrations (HIV-1; pretreat 0 h): Transient suppression lost with at lower
Comment: transient suppression lost at lower concentrations (HIV-1; pretreat 4 h): Transient suppression lost with at lower
Comment: transient suppression lost at lower concentrations (HIV-1; pretreat 24 h): Transient suppression t lost with at lower
